Test results from US12251417B2, “Antimicrobial compounds from the genus Delftia” (Ministry of Health, State of Israel, priority 2017, dated 2025).
In brackets after ≈: the same amount, converted by molar mass. Square brackets hold non-standard residues; d marks the D form. Peptide text beside a SMILES is read from it. * marks the point of attachment. ξ: configuration not given here. NH(1-OH-2-oxopiperidin-3-yl) = O=C1C(N*)CCCN1O; ξOrn(N(OH)CHO) = NC(CCCN(O)C=O)C(=O)O; ξAsp(3ξ-OH) = NC(C(=O)O)C(O)C(=O)O; X1 = CC(N)C(O)C(C)C(=O)*; Dhb = C/C=C(\N)C(=O)O

Key:
[1] = system: THLE2; experiment: MTT cytotoxicity assay; format: cell-based, human; conditions: 24/72 hours
From the text: (§1) MTT (3-(4,5-Dimethylthiazol-2-yl)-2,5-diphenyltetrazolium bromide) is a colorimetric assay for measuring the activity of cellular enzymes that reduce the tetrazolium dye, MTT, to its insoluble formazan, giving a purple color. This assay measure mitochondrial metabolic activity via NAD(P)Hdependent cellular oxidoreductase enzymes and may, under defined conditions, reflect the number of viable cells. The cells used in this study were: Hep G2 (HB-8065) is a perpetual cell line which was derived from the liver tissue of a person with a well-differentiated hepatocellular carcinoma. THLE-2 is a perpetual cell line which was derived from the liver epithelial cells of an adult human transformed with SV40 large T antigen.
(§2) The assay: cell concentration treatment 24 hours: Cells were seeded at a concentration of 2×10^4 cells/well in 200 μl culture medium and incubated at 37° C. in 5% CO2. Cell concentration treatment 72 hours: Cells were seeded at a concentration of 1×10^4 cells/well in 200 μl culture medium and incubated at 37° C. in 5% CO2. After 24 hours, the medium was replaced with a final volume of 200 μl and 1 μl of compound (dilution 1/200) and controls were added to the plates. […]
(§3) When extracts/compounds and controls were added, plates were incubated at 37° C. in 5% CO2 incubator for 24/72 hours. […] The absorbance was measured using a multireader Victor™ at a wavelength of 570 nm.

[2] = system: HepG2; experiment: MTT cytotoxicity assay; format: cell-based, human; conditions: 24/72 hours
From the text: as §1, §2, §3

[3] = system: Deftia strain 2189; experiment: Delftibactin A as carrier of gallium; format: cell-based, Delftia; conditions: with gallium
From the text: FIG. 36 is a graph illustrating that Delftibactin A can be used as a carrier of inhibitory antimicrobial agents such as gallium to inhibit harmful bacterial strains such as Deftia strain 2189.

[4] = system: vancomycin resistant enterococci (VRE); experiment: Inhibition of VRE by Delftibactin A alone and with antibiotics; format: cell-based
From the text: FIG. 33 is a graph illustrating that Delftibactin A inhibits Vancomycin Resistant Enterococci (VRE).

[5] = system: C. albicans ATCC64124; experiment: Broth microdilution MIC; format: cell-based; conditions: lowest concentration that inhibited ≥50% of growth after overnight incubation
Description: Deftibactin A was serially diluted in DMSO with a dilution factor of 2, to provide 10 concentrations for all the assays. The MIC is defined as the lowest concentration of compound that inhibited ≥90% or ≥50% of the growth of a microorganism after overnight incubation. Genedata Screener software (Genedata, Inc., Basel, Switzerland) was used to analyze the data and to determine the MICs and calculate the RZ′ factor, to estimate the robustness of the assays. Delftibactin A was tested on two different days and in triplicate.
Broth microdilution was used to determine the minimal inhibitory concentration (MIC) according to the standards of the Clinical and Laboratory Standards Institute (CLSI) or the European Committee on Antimicrobial Susceptibility Testing (EUCAST). Cation-adjusted Mueller-Hinton broth (CAMHB) was used with inoculum of about 5×10^5 cfu ml^−1 of the tested pathogen. Direct suspension of overnight colonies into CAMHB was used for the generation of the bacterial suspension. The tested inhibited compound or supernatant was used in doubling dilutions in 50 μl of CAMHB and inoculated with an equal amount of bacteria in the broth.

## C/C=C(\NC(=O)CNC(=O)C(NC(=O)C(NC(=O)C(C)C(O)C(C)N)C(O)C(=O)O)C(C)O)C(=O)NC(CCCN(O)C=O)C(=O)NC(CO)C(=O)NC(CCCN=C(N)N)C(=O)NC1CCCN(O)C1=O (stereo not shown) [Delftibactin A] (X1-[ξAsp(3ξ-OH)]TG[Dhb][ξOrn(N(OH)CHO)]SR-{NH(1-OH-2-oxopiperidin-3-yl)}; configuration not given here)
[1]
  cytotoxic activity (MTT): not have cytotoxic activity
[2]
  cytotoxic activity (MTT): not have cytotoxic activity
[3]
  inhibition of Deftia strain 2189 as carrier of gallium: inhibit
[4]
  inhibition of vancomycin resistant enterococci (VRE): inhibits
[4]; Delftibactin A 10 μM
  combined antimicrobial effect with clarithromycin on VRE: additive combined antimicrobial effect
  combined antimicrobial effect with rifampicin on VRE: additive combined antimicrobial effect
[5]
  MIC50: 16 µg/mL (≈ 15.5 µM)
